Active and inactive are the calls of the source. The calls are words filed in the database; no cut-off is given here. A value given as a limit tells only on which side of the number the result lay.

This is an account of results in ChEMBL document CHEMBL1158562, “Design, synthesis and structure-activity relationships of novel biarylamine-based Met kinase inhibitors” (Bioorg Med Chem Lett, 2010).

Series [1] is described as follows: Antiproliferative activity against human GTL16 cells after 72 hrs by tetrazolium-based colorimetric assay. As to conditions: GTL 16, 72 h.
The subject of series [2] is GTL 16. In words: Antitumor activity against human GTL16 cells xenografted in anthymic mouse administered po qd for 15 days. The class given is functional, organism-based.
Series [3] addresses Hepatocyte growth factor receptor (Homo sapiens, UniProt P08581). In words: Inhibition of GST-tagged human recombinant c-met N terminal domain expressed in Hi5 insect cells after 60 mins by liquid scintillation counting.
Series [4] deals with T1, Receptor-type tyrosine-protein kinase FLT3 (Homo sapiens, UniProt P36888).
T1 sequence (P36888 whole entry): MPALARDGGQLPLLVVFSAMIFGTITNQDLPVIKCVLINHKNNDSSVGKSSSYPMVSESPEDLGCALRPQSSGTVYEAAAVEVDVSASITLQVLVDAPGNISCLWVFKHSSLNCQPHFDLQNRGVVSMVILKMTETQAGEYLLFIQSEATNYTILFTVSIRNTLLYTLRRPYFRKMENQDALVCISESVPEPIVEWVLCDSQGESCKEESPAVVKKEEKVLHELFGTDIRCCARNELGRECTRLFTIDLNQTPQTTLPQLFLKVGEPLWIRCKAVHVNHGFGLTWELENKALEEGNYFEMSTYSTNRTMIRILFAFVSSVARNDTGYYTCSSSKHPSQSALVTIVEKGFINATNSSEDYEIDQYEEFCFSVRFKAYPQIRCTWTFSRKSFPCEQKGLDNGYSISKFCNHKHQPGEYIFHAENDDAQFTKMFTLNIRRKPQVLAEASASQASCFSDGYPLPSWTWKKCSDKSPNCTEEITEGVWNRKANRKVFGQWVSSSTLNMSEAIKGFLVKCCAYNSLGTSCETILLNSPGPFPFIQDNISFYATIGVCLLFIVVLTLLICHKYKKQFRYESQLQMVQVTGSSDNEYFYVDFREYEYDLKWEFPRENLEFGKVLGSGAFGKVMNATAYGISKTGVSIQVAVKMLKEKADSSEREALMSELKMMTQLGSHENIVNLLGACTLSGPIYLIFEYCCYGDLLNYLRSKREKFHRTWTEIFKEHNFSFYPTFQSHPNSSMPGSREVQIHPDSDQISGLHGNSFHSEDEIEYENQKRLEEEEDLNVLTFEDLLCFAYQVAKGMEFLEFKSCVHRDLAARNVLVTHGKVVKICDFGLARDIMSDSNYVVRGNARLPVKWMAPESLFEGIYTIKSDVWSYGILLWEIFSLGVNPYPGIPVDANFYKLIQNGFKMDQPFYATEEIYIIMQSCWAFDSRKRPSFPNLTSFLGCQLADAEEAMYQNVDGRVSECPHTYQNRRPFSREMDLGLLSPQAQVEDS
In words: Inhibition of FLT3.

The target in series [5] is MAP kinase-activated protein kinase 2 (Homo sapiens, UniProt P49137). The series is described as follows: Inhibition of MK2.
Series [6] has as its system GTL 16. In words: Antitumor activity against human GTL16 cells xenografted in anthymic mouse assessed as complete tumor stasis at 25 mg/kg, po qd for 15 days. The arrangement: dose 25 mg/kg. The class given is functional, organism-based. A general note: In xenograft studies the graft and the host belong to different species.
For series [7], the target named is Protein kinase C alpha type (Homo sapiens, UniProt P17252). In words: Inhibition of PKCalpha.
Series [8] is described as follows: Cmax in mouse at 50 mg/kg, po for 8 hrs. The class given is ADME, organism-based. The settings on record: in vivo. Further details: dose 50 mg/kg, route oral.
Series [9] addresses Tyrosine-protein kinase Lck (Homo sapiens, UniProt P06239). The series is described as follows: Inhibition of LcK.
A short description of series [10]: Inhibition of CDK2E.
The target of series [11] is High affinity nerve growth factor receptor (Homo sapiens, UniProt P04629). In words: Inhibition of TrkA.
Series [12] in a line: AUC (0 to 8 hrs) in mouse at 50 mg/kg, po. The class given is ADME, organism-based. Further details: time < 8 hr, dose 50 mg/kg, route oral. As to conditions: plasma.
The target of a further series is Insulin receptor (Homo sapiens, UniProt P06213). In words: Inhibition of InsR.
Sequence of Insulin receptor (P06213 28-758 limits assumed): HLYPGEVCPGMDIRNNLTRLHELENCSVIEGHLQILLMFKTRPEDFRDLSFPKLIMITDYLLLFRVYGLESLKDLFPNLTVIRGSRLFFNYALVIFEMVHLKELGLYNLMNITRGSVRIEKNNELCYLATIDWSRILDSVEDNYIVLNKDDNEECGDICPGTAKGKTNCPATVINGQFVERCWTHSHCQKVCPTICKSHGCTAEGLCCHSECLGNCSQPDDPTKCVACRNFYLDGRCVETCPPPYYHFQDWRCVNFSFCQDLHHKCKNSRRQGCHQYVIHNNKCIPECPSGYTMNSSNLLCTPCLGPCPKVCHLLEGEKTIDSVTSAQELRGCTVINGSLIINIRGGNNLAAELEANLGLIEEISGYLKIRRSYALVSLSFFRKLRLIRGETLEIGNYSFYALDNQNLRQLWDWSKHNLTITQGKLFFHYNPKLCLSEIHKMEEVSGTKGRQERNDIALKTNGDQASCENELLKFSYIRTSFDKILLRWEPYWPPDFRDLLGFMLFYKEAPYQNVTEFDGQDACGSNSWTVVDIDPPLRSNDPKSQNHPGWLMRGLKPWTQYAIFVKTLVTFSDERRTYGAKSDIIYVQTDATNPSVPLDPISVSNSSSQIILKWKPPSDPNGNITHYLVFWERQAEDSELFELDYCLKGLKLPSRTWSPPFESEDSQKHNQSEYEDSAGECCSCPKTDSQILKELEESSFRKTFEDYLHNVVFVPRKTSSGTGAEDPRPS
Sequence of Insulin receptor (P06213 763-1382 limits assumed): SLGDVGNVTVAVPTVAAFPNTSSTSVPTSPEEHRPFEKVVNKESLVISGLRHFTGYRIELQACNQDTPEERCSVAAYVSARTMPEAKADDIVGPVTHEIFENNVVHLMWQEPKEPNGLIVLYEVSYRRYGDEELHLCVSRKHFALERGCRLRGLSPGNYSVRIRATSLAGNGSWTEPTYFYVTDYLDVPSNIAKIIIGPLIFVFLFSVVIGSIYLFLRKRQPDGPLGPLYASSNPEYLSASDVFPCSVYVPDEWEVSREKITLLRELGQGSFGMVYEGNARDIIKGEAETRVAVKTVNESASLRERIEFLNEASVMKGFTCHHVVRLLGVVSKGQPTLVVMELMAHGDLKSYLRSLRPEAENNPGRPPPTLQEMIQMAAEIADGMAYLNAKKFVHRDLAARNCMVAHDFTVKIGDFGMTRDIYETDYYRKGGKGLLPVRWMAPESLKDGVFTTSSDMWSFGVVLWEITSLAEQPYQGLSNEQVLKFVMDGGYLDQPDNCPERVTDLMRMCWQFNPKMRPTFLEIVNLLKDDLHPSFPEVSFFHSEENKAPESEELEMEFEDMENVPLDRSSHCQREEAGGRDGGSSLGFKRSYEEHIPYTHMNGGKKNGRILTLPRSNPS

Sequence of High affinity nerve growth factor receptor (P04629 whole entry): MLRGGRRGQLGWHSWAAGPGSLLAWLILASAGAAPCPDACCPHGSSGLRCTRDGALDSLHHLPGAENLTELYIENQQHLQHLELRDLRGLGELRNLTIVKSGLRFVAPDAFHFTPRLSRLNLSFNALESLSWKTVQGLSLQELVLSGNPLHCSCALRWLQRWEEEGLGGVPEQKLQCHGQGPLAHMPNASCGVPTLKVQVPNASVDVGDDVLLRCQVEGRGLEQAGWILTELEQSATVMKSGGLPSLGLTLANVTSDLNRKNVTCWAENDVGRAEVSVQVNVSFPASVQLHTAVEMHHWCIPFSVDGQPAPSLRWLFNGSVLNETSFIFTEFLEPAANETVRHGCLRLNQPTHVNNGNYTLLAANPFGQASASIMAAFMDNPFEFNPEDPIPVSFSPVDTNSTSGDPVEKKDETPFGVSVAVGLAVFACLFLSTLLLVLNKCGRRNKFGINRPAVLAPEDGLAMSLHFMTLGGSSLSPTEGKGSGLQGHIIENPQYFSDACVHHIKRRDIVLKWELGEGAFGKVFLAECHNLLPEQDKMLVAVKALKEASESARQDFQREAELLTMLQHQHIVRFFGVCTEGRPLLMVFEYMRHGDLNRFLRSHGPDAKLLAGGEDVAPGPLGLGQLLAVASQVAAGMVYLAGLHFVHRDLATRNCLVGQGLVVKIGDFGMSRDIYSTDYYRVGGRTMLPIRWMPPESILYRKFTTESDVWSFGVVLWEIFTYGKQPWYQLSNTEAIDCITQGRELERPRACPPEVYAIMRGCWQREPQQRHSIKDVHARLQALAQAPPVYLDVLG
Sequence of Tyrosine-protein kinase Lck (P06239 whole entry): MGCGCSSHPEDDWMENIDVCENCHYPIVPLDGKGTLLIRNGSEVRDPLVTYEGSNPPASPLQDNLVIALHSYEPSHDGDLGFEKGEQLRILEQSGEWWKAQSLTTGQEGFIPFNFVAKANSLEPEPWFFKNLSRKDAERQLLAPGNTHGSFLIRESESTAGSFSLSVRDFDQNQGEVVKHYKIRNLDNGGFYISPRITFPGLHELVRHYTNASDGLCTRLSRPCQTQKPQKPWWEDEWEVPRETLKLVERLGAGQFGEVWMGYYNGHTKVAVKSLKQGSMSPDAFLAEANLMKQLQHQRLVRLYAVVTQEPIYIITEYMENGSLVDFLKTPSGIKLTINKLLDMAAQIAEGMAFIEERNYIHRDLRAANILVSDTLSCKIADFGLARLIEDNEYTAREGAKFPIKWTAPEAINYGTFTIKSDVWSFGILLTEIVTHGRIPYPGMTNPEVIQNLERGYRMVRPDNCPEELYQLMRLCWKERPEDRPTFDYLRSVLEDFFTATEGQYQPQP
Sequence of Hepatocyte growth factor receptor (P08581 whole entry, the tested form may be a part): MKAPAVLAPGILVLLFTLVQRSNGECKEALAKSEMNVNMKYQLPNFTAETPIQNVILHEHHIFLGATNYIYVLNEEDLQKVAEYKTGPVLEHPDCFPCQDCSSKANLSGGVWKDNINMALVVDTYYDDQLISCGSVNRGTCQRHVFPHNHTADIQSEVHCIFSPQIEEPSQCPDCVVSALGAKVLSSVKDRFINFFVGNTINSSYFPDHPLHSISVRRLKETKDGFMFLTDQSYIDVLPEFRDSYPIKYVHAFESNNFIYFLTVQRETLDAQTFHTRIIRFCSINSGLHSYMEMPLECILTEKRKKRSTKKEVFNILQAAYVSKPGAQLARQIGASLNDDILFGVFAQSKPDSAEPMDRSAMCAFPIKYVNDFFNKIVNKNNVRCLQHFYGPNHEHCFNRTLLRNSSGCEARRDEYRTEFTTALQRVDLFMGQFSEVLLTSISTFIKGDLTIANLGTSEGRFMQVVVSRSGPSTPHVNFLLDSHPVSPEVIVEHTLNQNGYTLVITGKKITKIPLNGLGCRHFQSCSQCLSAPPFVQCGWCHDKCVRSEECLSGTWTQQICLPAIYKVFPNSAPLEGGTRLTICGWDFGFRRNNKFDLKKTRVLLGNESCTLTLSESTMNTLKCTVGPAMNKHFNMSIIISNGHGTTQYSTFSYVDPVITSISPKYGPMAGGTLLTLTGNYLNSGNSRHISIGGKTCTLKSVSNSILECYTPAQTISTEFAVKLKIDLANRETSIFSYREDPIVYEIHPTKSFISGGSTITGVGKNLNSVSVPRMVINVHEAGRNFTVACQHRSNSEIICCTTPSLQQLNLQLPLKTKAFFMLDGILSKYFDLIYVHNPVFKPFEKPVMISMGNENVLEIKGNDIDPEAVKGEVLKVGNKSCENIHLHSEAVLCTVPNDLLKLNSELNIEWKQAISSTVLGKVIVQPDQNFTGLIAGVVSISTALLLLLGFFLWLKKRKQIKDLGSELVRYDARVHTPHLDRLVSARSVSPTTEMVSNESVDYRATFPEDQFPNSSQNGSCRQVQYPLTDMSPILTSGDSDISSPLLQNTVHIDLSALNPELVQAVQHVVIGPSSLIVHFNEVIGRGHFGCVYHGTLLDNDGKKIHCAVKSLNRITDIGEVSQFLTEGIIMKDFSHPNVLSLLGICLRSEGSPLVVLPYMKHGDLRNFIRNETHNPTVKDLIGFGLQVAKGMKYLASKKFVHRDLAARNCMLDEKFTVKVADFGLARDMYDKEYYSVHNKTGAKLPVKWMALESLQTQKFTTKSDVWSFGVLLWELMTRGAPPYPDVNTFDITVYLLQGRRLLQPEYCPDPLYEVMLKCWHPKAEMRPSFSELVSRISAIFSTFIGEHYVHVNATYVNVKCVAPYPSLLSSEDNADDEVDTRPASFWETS

Usually IC50 stands for the point on the concentration scale where inhibition reaches its midpoint. In turn, `Cc1ccc(C(=O)Nc2ccc(F)cc2F)c(Nc2ccc(Oc3ccnc4[nH]ccc34)c(F)c2)n1` registered an IC50 in [1] of 2400 nM.
On the same count and under the same terms, with `Nc1cc(Oc2ccc(Nc3ncncc3C(=O)Nc3ccc(F)cc3F)cc2F)ccn1` the figure was 1930 nM; with `O=C(Nc1ccc(F)cc1F)c1cc(Br)cnc1Nc1ccc(Oc2ccnc3[nH]ccc23)c(F)c1`, 640 nM; with `O=C(Nc1ccccc1CCO)c1cccnc1Nc1ccc(Oc2ccnc3[nH]ccc23)c(F)c1`, 400 nM.
`CN(C(=O)c1cccnc1Nc1ccc(Oc2ccnc3[nH]ccc23)c(F)c1)c1ccc(F)cc1` yielded an IC50 in series [1] of 5580 nM.
In turn, `O=C(Nc1ccccc1)c1cccnc1Nc1ccc(Oc2ccnc3[nH]ccc23)c(F)c1` gave a 50% inhibitory concentration (IC50) in series [1] of 460 nM.
In [1], `Nc1cc(Oc2ccc(Nc3ncccc3C(=O)Nc3ccc(Cl)cc3)cc2F)ccn1` gave an IC50 of 1160 nM.
On to `CSc1ncc(C(=O)Nc2ccc(F)cc2F)c(Nc2ccc(Oc3ccnc(N)c3)c(F)c2)n1`, for which, in [1], the IC50 was determined as 440 nM.
Same read-out and setting: next, `Nc1cc(Oc2ccc(Nc3nccnc3C(=O)Nc3ccc(F)cc3F)cc2F)ccn1`: 2730 nM.
On the same count and under the same terms, with `Nc1cc(Oc2ccc(Nc3ncc(Br)cc3C(=O)Nc3ccc(F)cc3F)cc2F)ccn1` the figure was 590 nM; with `Nc1cc(Oc2ccc(Nc3ncccc3C(=O)Nc3ccc(F)cc3F)cc2F)ccn1`, 900 nM; with `O=C(Nc1ccc(F)cc1F)c1cnccc1Nc1ccc(Oc2ccnc3[nH]ccc23)c(F)c1`, over 10000 nM.
What is called Cmax is the highest concentration seen after dosing. A word on the AUC(0-t): it is the area under the concentration-time curve up to a stated or last time point. The low end stands for less exposure, the high end for more exposure. Turning to `O=C(Nc1ccc(F)cc1F)c1cccnc1Nc1ccc(Oc2ccnc3[nH]ccc23)c(F)c1`, the Activity entry in the series on GTL 16 [2] is “Dose-dependent effect”. The IC50 in [3] was 7 nM; in series [4] it was 120 nM; in series [5], over 50 µM; in series [7], over 50 µM; in series [9] it was over 50 µM; in series [1], 210 nM. Moreover, the IC50 in series [10] was over 50 µM; in series [11], 350 nM; against Insulin receptor, over 50 µM. For the same compound, the result in the series with GTL 16 [6] was Active. The compound also displayed a Cmax in series [8] of 9.3 µM. This compound showed an AUC(0-t) at 8 h in [12] of 42 µM·h.
For the compound `O=C(Nc1ccc(F)cc1F)c1nccnc1Nc1ccc(Oc2ccnc3[nH]ccc23)c(F)c1`, in series [1], the IC50 came out at 7150 nM.
Compound `CN(C)c1ncc(C(=O)Nc2ccc(F)cc2F)c(Nc2ccc(Oc3ccnc(N)c3)c(F)c2)n1` had an IC50 in series [1] of over 10000 nM.
Still for that read-out and setting: next, `O=C(Nc1ccccc1Cl)c1cccnc1Nc1ccc(Oc2ccnc3[nH]ccc23)c(F)c1`: 1200 nM; `O=C(Nc1ccc(F)cn1)c1cccnc1Nc1ccc(Oc2ccnc3[nH]ccc23)c(F)c1`: 270 nM; `Cc1ccccc1NC(=O)c1cccnc1Nc1ccc(Oc2ccnc3[nH]ccc23)c(F)c1`: 420 nM.
